Experimental data taken from ChEMBL document CHEMBL2203236, “New monoterpene glycosides from Paeonia suffruticosa Andrews and their inhibition on NO production in LPS-induced RAW 264.7 cells” (Bioorg Med Chem Lett, 2012).

What was measured:
[1] = tested on: RAW264.7; experiment: Cytotoxicity against mouse RAW264.7 cells after 24 hrs; type: cell-based; conditions: raw264.7, 24 h
[2] = tested on: RAW264.7; experiment: Inhibition of LPS-induced NO production in mouse RAW264.7 cells after 24 hrs by Griess reaction; type: functional, cell-based; conditions: RAW264.7, 24 h

SMILES | Activity [1] | IC50 [2] [µM]
CCCCO[C@]12C[C@]3(C)OC(O1)[C@]1(COC(=O)c4ccccc4)[C@@H]2C[C@@]31O[C@@H]1O[C@H](CO)[C@@H](O)[C@H](O)[C@H]1O | Non-toxic | > 100
CO[C@]12C[C@]3(C)O[C@H](O1)[C@]1(COC(=O)c4ccccc4)[C@@H]2C[C@]13O[C@@H]1O[C@H](COC(=O)c2ccccc2)[C@@H](O)[C@H](O)[C@H]1O | Non-toxic | 41.9
CO[C@]12C[C@]3(C)O[C@H](O1)[C@]1(COC(=O)c4ccccc4)[C@@H]2C[C@]13O[C@@H]1O[C@H](CO)[C@@H](O)[C@H](O)[C@H]1O | Non-toxic | > 100
CO[C@]12C[C@]3(C)O[C@H](O1)[C@]1(COC(=O)c4ccc(O)cc4)[C@H]2C[C@@]13O[C@@H]1O[C@H](CO)[C@@H](O)[C@H](O)[C@H]1O | Non-toxic | > 100
CO[C@]12C[C@]3(C)O[C@H](O1)[C@]1(COC(=O)c4ccc(O)cc4)[C@H]2C[C@@]13O[C@@H]1O[C@H](COC(=O)c2cc(O)c(O)c(O)c2)[C@@H](O)[C@H](O)[C@H]1O | Non-toxic | > 100
CO[C@@H]1O[C@@]2(C)CC(=O)[C@@H]3C[C@@]2(O[C@@H]2O[C@H](CO)[C@@H](O)[C@H](O)[C@H]2O)[C@]13COC(=O)c1ccc(O)cc1 | Non-toxic | 
CCCCO[C@H]1O[C@@]2(C)CC(=O)[C@@H]3C[C@@]2(O[C@@H]2O[C@H](CO)[C@@H](O)[C@H](O)[C@H]2O)[C@]13COC(=O)c1ccc(O)cc1 | Non-toxic | > 100
CCCCO[C@H]1O[C@@]2(C)CC(=O)[C@@H]3C[C@@]2(O[C@@H]2O[C@H](CO)[C@@H](O)[C@H](O)[C@H]2O)[C@]13COC(=O)c1ccccc1 | Non-toxic | > 100
CCCCO[C@]12C[C@]3(C)O[C@H](O1)[C@]1(COC(=O)c4ccc(O)cc4)[C@H]2C[C@@]13O[C@@H]1O[C@H](CO)[C@@H](O)[C@H](O)[C@H]1O | Non-toxic | > 100
C[C@@]12C[C@@]3(O)O[C@@H](O1)[C@]1(CO)[C@H]3C[C@@]12O[C@@H]1O[C@H](CO)[C@@H](O)[C@H](O)[C@H]1O | Non-toxic | 74.2
C[C@@]12C[C@@]3(O)O[C@@H](O1)[C@]1(COC(=O)c4ccccc4)[C@@H]3C[C@]12O[C@@H]1O[C@H](COC(=O)c2ccccc2)[C@@H](O)[C@H](O)[C@H]1O [BENZOYLPAEONIFLORIN] | Non-toxic | > 100
C[C@@]12C[C@@]3(O)O[C@@H](O1)[C@]1(COC(=O)c4ccc(O)cc4)[C@H]3C[C@@]12O[C@@H]1O[C@H](COC(=O)c2cc(O)c(O)c(O)c2)[C@@H](O)[C@H](O)[C@H]1O [GALLOYLOXYPAEONIFLORIN] | Non-toxic | > 100
C[C@@]12C[C@@]3(O)O[C@@H](O1)[C@]1(COC(=O)c4ccccc4)[C@@H]3C[C@]12O[C@@H]1O[C@H](COC(=O)c2cc(O)c(O)c(O)c2)[C@@H](O)[C@H](O)[C@H]1O [GALLOYLPAEONIFLORIN] | Non-toxic | 36.1
COc1ccc(C(=O)OC[C@H]2O[C@@H](O[C@]34C[C@@H]5[C@@]3(COC(=O)c3ccc(O)cc3)[C@H]3O[C@]5(O)C[C@]4(C)O3)[C@H](O)[C@@H](O)[C@@H]2O)cc1 [MOUDANPIOSIDE B] | Non-toxic | > 100
CC1=CC(=O)[C@@H]2C[C@@]1(O[C@@H]1O[C@H](CO)[C@@H](O)[C@H](O)[C@H]1O)[C@@]2(C)CO [MOUDANPIOSIDE F] | Non-toxic | 12.4
COc1ccc(C(=O)OC[C@]23[C@H]4O[C@]5(O)C[C@](C)(O4)[C@@]2(O[C@@H]2O[C@H](CO)[C@@H](O)[C@H](O)[C@H]2O)C[C@H]35)cc1 [MUDANPIOSIDE D] | Non-toxic | > 100
COc1cc(C(=O)OC[C@H]2O[C@@H](O[C@@]34C[C@H]5[C@@]3(CO)[C@H]3O[C@]5(O)C[C@]4(C)O3)[C@H](O)[C@@H](O)[C@@H]2O)ccc1O [MUDANPIOSIDE E] | Non-toxic | > 100
C[C@@]12C[C@@]3(O)O[C@@H](O1)[C@]1(COC(=O)c4ccc(O)cc4)[C@H]3C[C@@]12O[C@@H]1O[C@H](COC(=O)c2ccc(O)cc2)[C@@H](O)[C@H](O)[C@H]1O [MUDANPIOSIDE H] | Non-toxic | > 100
COc1cc(C(=O)OC[C@H]2O[C@@H](O[C@]34C[C@@H]5[C@@]3(COC(=O)c3ccccc3)[C@H]3O[C@]5(O)C[C@]4(C)O3)[C@H](O)[C@@H](O)[C@@H]2O)ccc1O [MUDANPIOSIDE J] | Non-toxic | > 100
CO[C@H]1O[C@@]2(C)CC(=O)[C@@H]3C[C@@]2(O[C@@H]2O[C@H](CO)[C@@H](O)[C@H](O)[C@H]2O)[C@]13COC(=O)c1ccc(O)cc1 [OXYPAEONIDANIN] | Non-toxic | 90.9
C[C@@]12C[C@@]3(OS(=O)O)O[C@@H](O1)[C@]1(COC(=O)c4ccc(O)cc4)[C@H]3C[C@@]12O[C@@H]1O[C@H](CO)[C@@H](O)[C@H](O)[C@H]1O [OXYPAEONIFLORIN SULFONATE] | Non-toxic | > 100
C[C@@]12C[C@@]3(O)O[C@@H](O1)[C@]1(COC(=O)c4ccc(O)cc4)[C@H]3C[C@@]12O[C@@H]1O[C@H](CO)[C@@H](O)[C@H](O)[C@H]1O [OXYPAEONIFLORIN] | Non-toxic | 
C[C@@]12C[C@@]3(O)O[C@@H](O1)[C@]1(COC(=O)c4ccc(O)cc4)[C@@H]3C[C@]12O[C@@H]1O[C@H](CO)[C@@H](O)[C@H](O)[C@H]1O [OXYPAEONIFLORIN] |  | > 100
CO[C@H]1O[C@@]2(C)CC(=O)[C@H]3C[C@]2(O[C@@H]2O[C@H](COC(=O)c4ccccc4)[C@@H](O)[C@H](O)[C@H]2O)[C@]13COC(=O)c1ccccc1 [PAEONIDANIN A] | Non-toxic | > 100
C[C@@]12CC(=O)[C@H]3C[C@]1(O)O[C@H](O2)[C@@H]3COC(=O)c1ccccc1 [PAEONIFLORIGENONE] | Non-toxic | 6.87
C[C@@]12C[C@@]3(O)O[C@@H](O1)[C@]1(COC(=O)c4ccccc4)[C@H]3C[C@@]12O[C@@H]1O[C@H](COC(=O)c2ccccc2)[C@@H](O[C@@H]2O[C@H](CO)[C@@H](O)[C@H](O)[C@H]2O)[C@H](O)[C@H]1O [PAEONIFLORIN B] | Non-toxic | 31.2
C[C@@]12C[C@@]3(O)O[C@@H](O1)[C@]1(COC(=O)c4ccccc4)[C@H]3C[C@@]12O[C@@H]1O[C@H](CO)[C@@H](O)[C@H](O)[C@H]1O [PAEONIFLORIN] | Non-toxic | > 100
